Source: patent US10710986B2, “PD-1/PD-L1 inhibitors” (Gilead Sciences, Inc., priority 2018, dated 2020)

Target: PD-1/PD-L1 (Homo sapiens (Human), UniProt Q9NZQ7)
Experiment: PD-1/PD-L1 biochemical protein-protein interaction assay (ALPHA)
Settings: 0.3 nM His tagged PD-L1, 2.5 nM biotinylated Fc-PD-1, 60 minutes at 25° C., read-out: IC50 PD-L1-PD1

Chain of PD-1/PD-L1 (Q9NZQ7 19-238): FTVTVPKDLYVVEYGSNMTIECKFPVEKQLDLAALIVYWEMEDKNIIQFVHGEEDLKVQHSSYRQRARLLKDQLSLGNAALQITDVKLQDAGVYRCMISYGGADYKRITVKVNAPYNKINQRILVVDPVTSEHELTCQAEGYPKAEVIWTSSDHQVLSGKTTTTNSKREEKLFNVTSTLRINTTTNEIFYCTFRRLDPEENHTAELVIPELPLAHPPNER

| IC50 [nM] | SMILES |
| --- | --- |
| 0.146 | COc1nc(-c2cccc(-c3cccc(-c4cnc(CN5CC6(CCC(=O)N6)C5)c(OC)n4)c3Br)c2Cl)cnc1CN1CC2(CCC(=O)N2)C1 [compound 390] |
| 0.232 | COc1nc(-c2cccc(-c3cccc(-c4cnc(CN5CC(O)C5)c(OC)n4)c3Br)c2Cl)cnc1CN1CC(O)C1 [compound 391] |
| 0.246 | COc1nc(-c2cccc(-c3cccc(-c4cnc(CNC[C@H]5CCC(=O)N5)c(OC)n4)c3Br)c2Cl)cnc1CNC[C@H]1CCC(=O)N1 [compound 392] |
| 2.23 | COc1nc(-c2cccc(-c3cccc(-c4cnc(CN5CC6(CNC(=O)C6)C5)c(OC)n4)c3Br)c2F)cnc1CN1CC2(CNC(=O)C2)C1 [compound 393] |
| 1.78 | COc1nc(-c2cccc(-c3cccc(-c4cnc(CN5CC6(CCC(=O)N6)C5)c(OC)n4)c3Br)c2F)cnc1CN1CC2(CCC(=O)N2)C1 [compound 394] |
| 9.24 | COc1nc(-c2cccc(-c3cccc(-c4cnc(CN5CC(O)C5)c(OC)n4)c3Br)c2F)cnc1CN1CC(O)C1 [compound 395] |
| 2.02 | COc1nc(-c2cccc(-c3cccc(-c4cnc(CNC[C@@H]5CCC(=O)N5)c(OC)n4)c3Br)c2F)cnc1CNC[C@@H]1CCC(=O)N1 [compound 396] |
| 0.561 | COc1nc(-c2cc(F)cc(-c3cc(F)cc(-c4cnc(CNC[C@@H]5CCC(=O)N5)c(OC)n4)c3Cl)c2Cl)cnc1CNC[C@@H]1CCC(=O)N1 [compound 397] |
| 0.195 | COc1nc(-c2cccc(-c3cc(F)cc(-c4cnc(CNC[C@@H]5CCC(=O)N5)c(OC)n4)c3Cl)c2Cl)cnc1CNC[C@@H]1CCC(=O)N1 [compound 398] |
| 0.324 | COc1nc(-c2cccc(-c3cc(F)cc(-c4cnc(CN5CC(O)C5)c(OC)n4)c3Cl)c2Cl)cnc1CN1CC(O)C1 [compound 399] |
| 0.173 | COc1nc(-c2cccc(-c3cccc(-c4cnc(CN5CC(OC)C5)c(OC)n4)c3Cl)c2Cl)cnc1CN1CC(OC)C1 [compound 400] |
| 0.295 | COc1nc(-c2cccc(-c3cccc(-c4cnc(CN(C)C)c(OC)n4)c3Cl)c2Cl)cnc1CN(C)C [compound 401] |
| 0.175 | CNCc1ncc(-c2cccc(-c3cccc(-c4cnc(CNC)c(OC)n4)c3Cl)c2Cl)nc1OC [compound 402] |
| 0.07 | COc1nc(-c2cccc(-c3cccc(-c4cnc(CNC[C@@H]5CCC(=O)N5)c(OC)n4)c3Cl)c2Cl)cnc1CNCC1CC(=O)NC1=O (some centres unmarked) [compound 403] |
| 0.07 | COc1nc(-c2cccc(-c3cccc(-c4cnc(CN5CCC(c6cnccn6)C5)c(OC)n4)c3Cl)c2Cl)cnc1CNC[C@@H]1CCC(=O)N1 (some centres unmarked) [compound 404] |
| 0.16 | COc1nc(-c2cccc(-c3cccc(-c4cnc(CN5CCC(c6cccnc6)C5)c(OC)n4)c3Cl)c2Cl)cnc1CNC[C@@H]1CCC(=O)N1 (some centres unmarked) [compound 405] |
| 0.28 | COc1nc(-c2cccc(-c3cccc(-c4cnc(CN5CCC(c6ccccn6)C5)c(OC)n4)c3Cl)c2Cl)cnc1CNC[C@@H]1CCC(=O)N1 (some centres unmarked) [compound 406] |
| 0.186 | COc1nc(-c2cccc(-c3cccc(-c4cnc(CN5CCC(O)(CC#N)C5)c(OC)n4)c3Cl)c2Cl)cnc1CNC[C@@H]1CCC(=O)N1 (some centres unmarked) [compound 407] |
| 0.139 | COc1nc(-c2cccc(-c3cccc(-c4cnc(CN5CCC(c6ncccn6)C5)c(OC)n4)c3Cl)c2Cl)cnc1CNC[C@@H]1CCC(=O)N1 (some centres unmarked) [compound 408] |
| 0.124 | COc1nc(-c2cccc(-c3cccc(-c4cnc(CN5CCC(C6CCCO6)C5)c(OC)n4)c3Cl)c2Cl)cnc1CNC[C@@H]1CCC(=O)N1 (some centres unmarked) [compound 409] |
| 0.316 | COc1nc(-c2cccc(-c3cccc(-c4cnc(CN5CCC(c6ccncc6)C5)c(OC)n4)c3Cl)c2Cl)cnc1CNC[C@@H]1CCC(=O)N1 (some centres unmarked) [compound 410] |
| 0.321 | COc1nc(-c2cccc(-c3cccc(-c4cnc(CN5CCC(C6CCOC6)C5)c(OC)n4)c3Cl)c2Cl)cnc1CNC[C@@H]1CCC(=O)N1 (some centres unmarked) [compound 411] |
| 0.187 | COc1nc(-c2cccc(-c3cccc(-c4cnc(CNC[C@@H]5CCC(=O)N5)c(OC)n4)c3Cl)c2Cl)cnc1CNCCc1cncc(O)c1 [compound 412] |
